# Assay results reported in patent publication US20080199899A1, “Method For Screening Modulators of Mitochondrial Functioning and New Modulators Obtained” (priority 2002, published 2008).
# Positions of bridges follow the written chain, without caps; N, C: chain ends. No end group written: not given here.
# Tested on: Human umbilical vein endothelial cells (HUVEC)
# Test: Apoptosis of HUVEC by FACS analysis after 7AAD staining
# Assay type: cell-based
# Settings: 5 to 30 μM, 24 to 96 h; FIG. 13
# Procedure: Human umbilical vein endothelial cells were treated with Seq.
# HUVEC cells were incubated for 24 to 96 h with 5 or 30 μM of peptide Seq. ID n 5, control peptide, or left untreated. Apoptosis was characterized by FACS analysis after 7AAD staining. A. Dose-response versus control peptide. B. Increasing incubation times with or without 10 μM peptides and staining with 7AAD and detection by FACS analysis.
substance,measurement,value
GG*CRGDMFG*CGGLLFIHFRIGSRHSRIG (GGCRGDMFGCGGLLFIHFRIGSRHSRIG; disulfide 3-10) [SEQ ID N^o 5],apoptosis of HUVEC (in words),apoptosis induction
